US20160316750A1, “Compounds, Compositions and Methods for Attracting and/or Arresting Bed Bugs” (priority 2013, published 2016)

What was measured:
bed bugs = assay: shelter traps in a heavily infested residential apartment (Room 106); assay type: in vivo, Cimex lectularius; details: 24-h periods; for Mean ± SE number insects in baited shelter: Exp. 76-79, paired shelters; for Mean (± SE) number insects in control shelter: Exp. 76-79, unbaited shelter paired with the baited shelter
Text: To determine whether bed bugs responded to synthetic pheromone lures not only in large arena laboratory bioassays but also in infested premises (residential apartments), we placed pheromone-baited shelter traps (see FIG. 1) in apartments with known or suspected bed bug infestations. […] Based on 24-hour trapping results in multiple apartments, we selected a single, heavily infested apartment (hereafter referred to as Room 106) for further testing of synthetic bed bug pheromone lures.
Replicates (n=15-20) of each experiment consisted of paired shelters placed against a wall or furniture, with approximately 30-cm spacing between paired shelters and >1 m spacing between shelter pairs. For each shelter pair within each experiment, pheromone and control treatments were randomly assigned, and placement of replicates was alternated between the two experiments of Set 1 and Set 2. Because not more than 10 shelter pairs could be accommodated in Room 106 at any time, experimental data were collected over several consecutive 24-h periods. Every morning at 9:00, shelters were collected from Room 106 and immediately placed into separate labelled zipper lock bags which were then put on dry ice to kill the bed bugs that had entered a shelter. Bed bugs in each shelter were later counted in the laboratory under a microscope, noting their developmental stage (1st, 2nd, 3rd, 4th instar, adult), sex (male, female), and evidence (or not) for blood feeding prior to entry into a shelter Immediately following the removal of bed bug shelters from Room 106 each morning, new pre-prepared shelters were pheromone-baited (treatment) or not (control) and their position within shelter pairs randomly assigned (see above), again alternating placement of shelter pairs between Experiments 76 and 77 (Set 1) and between Experiments 78 and 79 (Set 2).

Cimex lectularius [1] = assay: three-dish, dual-choice olfactometer bioassay; assay type: in vivo
Text: Bioassays were run in dual-choice olfactometers and in large Plexiglass arenas (FIG. 1). Dual-choice olfactometers consisted of two lateral Pyrex® glass Petri dishes, connected to a central dish (all dishes 3×9 cm inner diameter) via a Pyrex® glass tube (2.5 cm long×2 cm inner diameter). The dishes in this olfactometer mimic the natural still-air shelters in which bed bugs spend the day. Prior to the start of bioassays, a disc of paper towelling (9 cm diameter) was placed into each dish and a strip of paper towelling (2.4×0.6 cm) was inserted into the connecting glass tubing to provide traction for walking bed bugs. In addition, a piece of filter paper (2×3 cm; Whatman) was placed into each lateral dish and covered with a piece of cardboard (2×2 cm) as a refuge for bioassay insects.
Treatment and control stimuli were randomly assigned to each lateral dish. Olfactometers were enclosed in opaque plastic bins to prevent light from entering and affecting the insects' response. For each replicate, a single 3rd, 4th or 5th instar C. lectularius nymph was released into the central chamber of the olfactometer, which was then covered with a glass plate to prevent escape. The single bed bugs in each olfactometer were then allowed to explore all chambers. Each insect was released into an olfactometer at the end of the 14-h photophase allowing it to explore the chambers during 10 h of darkness, and to come to rest in one of the shelters during 10 h of light. After this 20-h period, the insect's position within the olfactometer was recorded. Any insects not found in a lateral chamber were recorded as non-responders. All experimental replicates were run at 24±2° C. and 30-60% RH. Olfactometers were washed with Sparkleen detergent (Fisher Scientific Co, Pittsburgh, Pa., USA), and were oven-dried (Precision, Winchester, Va., USA) between each bioassay.
To determine whether a blend of the 15 bed bug feces volatiles that were identified in bed bug feces (see EXAMPLE 11) attracts bed bugs and thus contains one or more bed bug pheromone components, the synthetic blend (SB) was tested at a medium dose (50 μg; Experiment 45), a low dose (5 μg; Experiment 46), and a very low dose (0.5 μg; Experiment 47) for the response of bed bugs in three-dish, dual-choice olfactometers (see EXAMPLE 2, FIG. 1). At each dose tested, all components were formulated in equal amounts in mineral oil which was pipetted into the inverted lid of a 4-ml vial. The vial was then placed on top of the corrugated cardboard shelter (see FIG. 1) in the randomly assigned treatment dish of the olfactometer (see EXAMPLE 2). The control stimulus consisted of the same type of lid on the corrugated cardboard of the control dish of the olfactometer containing mineral oil without synthetic test chemicals.

Cimex lectularius [2] = assay: large Plexiglass arena bioassay with baited and control shelters; assay type: in vivo; details: adult males
Text: The large two-chamber Plexiglass arena (180 cm long×12 cm high×13 cm wide) was designed with a central divider (180 cm long×5.5 cm high) to accommodate two pieces of wood (162 cm long×3.8 cm wide×0.8 cm high), each piece for testing the response of a single bed bug to a pheromone-baited shelter or a control shelter (see insert in FIG. 1,b) which were randomly assigned to either end of the wood. […] For each replicate, a single bed bug was placed in the center of the wood piece just prior to the end of the 14-h photophase, and its position was scored the next morning after the onset of the photophase.
Experiments 68-75 also investigated the effect of the volatile pheromone components (VPCs) (E)-2-hexenal, (E)-2-octenal, dimethyl disulfide, dimethyl trisulfide and 2-hexanone, and the effect of the less-volatile pheromone component histamine (H), on attraction and arrestment of bed bugs. Treatment stimuli consisted of filter paper (4×2.2 cm) impregnated with H (2,000 μg) and covered with a piece of corrugated cardboard shelter (3×2.2 cm), and of VPCs formulated at a high dose (500 μg; Experiments 68-74) or a medium dose (50 μg; Experiment 75) in mineral oil (0.5 ml) and pipetted into the inverted lid of a 20-ml scintillation vial resting on top of the shelter (FIG. 1). Control stimuli were of identical design but the filter paper contained no H, and the mineral oil contained no VPCs.

[3] = baited shelter 1 vs unbaited shelter 2, VPCs 500 μg, histamine 2,000 μg

Q: What does the source list for `NCCc1c[nH]cn1` [H, histamine]?
A: Mean ± SE number insects in baited shelter (bed bugs): 6.06 ± 1.28; Mean ± SE number insects in baited shelter (bed bugs; listed as histamine): 6.06; Mean (± SE) number insects in control shelter (bed bugs): 4.53 ± 1.8; Mean (± SE) number insects in control shelter (bed bugs; listed as histamine): 4.53; No. insects not responding (Cimex lectularius [1]; Exp. 23-37, nymphs, bait amounts in micrograms): 3; No. insects in control chamber (Cimex lectularius [1]; Exp. 23-37, nymphs, bait in the other chamber, amounts in micrograms): 10; No. insects in bait chamber (Cimex lectularius [1]; Exp. 23-37, nymphs, numbers in parentheses of the bait = amounts in micrograms): 35; arrestment response by form of histamine (in words) (Cimex lectularius [1]; Experiments 26-28, dimethylaminoethanol 20 μg and histamine 20 μg as base, salt or base and salt): only as a base elicits the bed bugs' arrestment response; bioactivity alone (in words) (Cimex lectularius [1]; Experiments 36-37, alone at 200 μg, nymphs): bioactive on its own; No. insects in shelter 2 (Cimex lectularius [2]; Exp. 72, H (2,000 μg) in shelter 2 vs VPC (500 μg) in shelter 1): 14; No. insects in shelter 2 (Cimex lectularius [2]; Exp. 74, H (2,000 μg) in shelter 2 vs VPC (500 μg) + H in shelter 1): 5; No. insects in shelter 2 (Cimex lectularius [2]; Exp. 75, H (2,000 μg) in shelter 2 vs VPC (50 μg) + H in shelter 1): 0; No. insects in shelter 1 (Cimex lectularius [2]; [3]): 12; No. insects not responding (Cimex lectularius [2]; [3]): 5; No. insects in shelter 2 (Cimex lectularius [2]; unbaited shelter 2, bait in shelter 1, VPCs 500 μg, histamine 2,000 μg): 1; No. insects in shelter 2 (Cimex lectularius [2]; unbaited shelter 2, bait in shelter 1, VPCs 500 μg, histamine 2,000 μg, listed as histamine): one
